{"source": "patent US20240261258A1", "about": "“Presurgical Perineural Administration of Resiniferatoxin For Reduction of Post-Operative Pain” (Sorrento Therapeutics, Inc., priority 2021, published 2024)", "key": {"[1]": {"tested_on": "healthy dogs undergoing TPLO surgery", "experiment": "Post-surgical evaluations (weight bearing, withdrawal reflex, proprioception, VAS, GCPS, injection and surgical site)", "type": "in vivo, dog", "excerpt": "Before the subjects underwent surgery, baseline data including a physical examination, hindlimb motor evaluation, hindlimb sensory evaluation, site of injection evaluation, and surgical site evaluation were collected. During the 8-week post-operative follow-up period on day 1, 2, 3, 14, 28, and 56 all the above parameters were reevaluated by a researcher who was blinded to the treatment.\nAfter observing the animal in its cage and after evaluating the subject walking, the overall pain was scored using a visual analog scale (VAS) and the short form of the Glasgow composite pain scale (GCPS). The VAS consisted of a straight line 10 cm long with the left end, 0 cm, indicating no pain and the right end, 10 cm, indicating unbearable pain. The user placed a mark on the line that best represented the intensity of the subject's pain. Animals with a VAS greater than 4 cm and a GCPS greater that 6 were considered painful and received intramuscular hydromorphone at 0.1 mg/kg.\n(§1) The injection site of RTX or local anesthetic was evaluated by visual examination (normal, red, swollen) and palpation (no pain, mild, severe). The surgical site was evaluated by visual examination (normal, red, swollen) and with the aid of an algometer. With the dog in lateral recumbency, the tip of the algometer was placed on the surgical site and pressure was manually applied until the animal moved the leg. During the baseline data collection, several measurements were taken until 3 measurements were within ±1 Newton (N). The number recorded corresponded to the average of these 3 values. After surgery, the force was applied only once. Data were collected from both the left (treated) and the right (non-treated) hindlimbs.\nThe withdrawal reflex and proprioception were assessed and scored as normal, decreased, or absent. The motor function was evaluated by encouraging the dog to stand and walk. Weight bearing standing and walking was scored as: normal, decreased (dog uses the leg but prefers the non-operated leg), or absent (dog avoids using the operated leg)."}, "[2]": {"tested_on": "healthy dogs undergoing TPLO surgery", "experiment": "Algometer measurements on the surgical site", "type": "in vivo, dog", "experimental": "as §1\nMean plus or minus the standard deviation (±SD) force in Newton was recorded at the pressure applied on the surgical incision when the subject moved the leg from the algometer. The left side was the treated stifle."}, "[3]": {"conditions": "Group 1 High, 25 μg total F/Sc nerve block"}, "[4]": {"conditions": "Group 2 Low, 6.25 μg total F/Sc nerve block"}, "[5]": {"conditions": "all subjects and timepoints, cutoff for painful"}}, "data": [{"compound": "C=C(C)[C@]12C[C@@H](C)[C@@]34O[C@](Cc5ccccc5)(O[C@@H]1[C@@H]3C=C(COC(=O)Cc1ccc(O)c(OC)c1)C[C@]1(O)C(=O)C(C)=C[C@@H]41)O2", "note": "[RTX, resiniferatoxin]", "values": [{"measurement": "Use of leg within 2 hours of surgery: Intermittent toe touching (dogs/group)", "setting": "[1]; [3]", "value": "touching: 2/4"}, {"measurement": "Use of leg within 2 hours of surgery: Normal (dogs/group)", "setting": "[1]; [3]", "value": "Normal: 2/4"}, {"measurement": "Use of leg within 2 hours of surgery: Absent (dogs/group)", "setting": "[1]; [4]", "value": "Absent: 1/4"}, {"measurement": "Use of leg within 2 hours of surgery: Intermittent toe touching (dogs/group)", "setting": "[1]; [4]", "value": "touching: 3/4;"}, {"measurement": "Use of leg within 2 hours of surgery: Absent (dogs/group)", "setting": "[1]; Group 3 Local, 50 μg on bone incision + 5 mg bupivacaine block", "value": "Absent: 4/4"}, {"measurement": "Injection site finding in one subject", "setting": "[1]; a subject in group 1, both resolved within 24 hours", "value": "minimal reaction upon palpation at day 1 and a small red area at day 3"}, {"measurement": "Injection site finding in one subject", "setting": "[1]; a subject in group 3", "value": "small non-painful red area at day 14"}, {"measurement": "Injection site appearance", "setting": "[1]; all animals", "value": "normal"}, {"measurement": "Withdrawal reflex", "setting": "[1]; all dogs at all time points", "value": "normal"}, {"measurement": "Time for redness and swollen areas around the surgical incision to resolve", "setting": "[1]; all dogs, regardless of group, after surgery", "value": "2 to 3", "unit": "days"}, {"measurement": "GCPS (short form Glasgow composite pain scale) score", "setting": "[1]; [5]", "value": "< 6"}, {"measurement": "VAS pain score", "setting": "[1]; [5]", "value": "< 4", "unit": "cm"}, {"measurement": "Weight bearing scores", "setting": "[1]; day 14, 28, and 56, all dogs except for one in group 2 (interdigital cyst)", "value": "normal scores"}, {"measurement": "Efficacy on post-operative pain", "setting": "[1]; perineural injection at 6.25 μg and 25 μg RTX total in dogs undergoing TPLO surgery", "value": "short-term efficacy in treating post-operative pain"}, {"measurement": "Algometer force on surgical site when the dog moved the leg (mean ± SD)", "setting": "[2]; Baseline, L (treated) hindlimb, Group 1 High, 25 μg", "value": "7.4 ± 3.1", "unit": "Newton"}, {"measurement": "Algometer force on surgical site when the dog moved the leg (mean ± SD)", "setting": "[2]; Baseline, L (treated) hindlimb, Group 2 Low, 6.25 μg", "value": "6.2 ± 2.3", "unit": "Newton"}, {"measurement": "Algometer force on surgical site when the dog moved the leg (mean ± SD)", "setting": "[2]; Baseline, L (treated) hindlimb, Group 3 Local, 50 μg", "value": "5.7 ± 2.5", "unit": "Newton"}, {"measurement": "Algometer force on surgical site when the dog moved the leg (mean ± SD)", "setting": "[2]; Baseline, R (non-treated) hindlimb, Group 1 High, 25 μg", "value": "7.1 ± 3.7", "unit": "Newton"}, {"measurement": "Algometer force on surgical site when the dog moved the leg (mean ± SD)", "setting": "[2]; Baseline, R (non-treated) hindlimb, Group 2 Low, 6.25 μg", "value": "7.0 ± 2.3", "unit": "Newton"}, {"measurement": "Algometer force on surgical site when the dog moved the leg (mean ± SD)", "setting": "[2]; Baseline, R (non-treated) hindlimb, Group 3 Local, 50 μg", "value": "8.5 ± 2.4", "unit": "Newton"}, {"measurement": "Algometer force on surgical site when the dog moved the leg (mean ± SD)", "setting": "[2]; Day 1, L (treated) hindlimb, Group 1 High, 25 μg", "value": "7.4 ± 5.9", "unit": "Newton"}, {"measurement": "Algometer force on surgical site when the dog moved the leg (mean ± SD)", "setting": "[2]; Day 1, L (treated) hindlimb, Group 2 Low, 6.25 μg", "value": "5.0 ± 2.1", "unit": "Newton"}, {"measurement": "Algometer force on surgical site when the dog moved the leg (mean ± SD)", "setting": "[2]; Day 1, L (treated) hindlimb, Group 3 Local, 50 μg", "value": "9.2 ± 2.1", "unit": "Newton"}, {"measurement": "Algometer force on surgical site when the dog moved the leg (mean ± SD)", "setting": "[2]; Day 1, R (non-treated) hindlimb, Group 1 High, 25 μg", "value": "6.1 ± 2.3", "unit": "Newton"}, {"measurement": "Algometer force on surgical site when the dog moved the leg (mean ± SD)", "setting": "[2]; Day 1, R (non-treated) hindlimb, Group 2 Low, 6.25 μg", "value": "3.8 ± 1.9", "unit": "Newton"}, {"measurement": "Algometer force on surgical site when the dog moved the leg (mean ± SD)", "setting": "[2]; Day 1, R (non-treated) hindlimb, Group 3 Local, 50 μg", "value": "9.6 ± 6.3", "unit": "Newton"}, {"measurement": "Algometer force on surgical site when the dog moved the leg (mean ± SD)", "setting": "[2]; Day 2, L (treated) hindlimb, Group 1 High, 25 μg", "value": "5.4 ± 3.3", "unit": "Newton"}, {"measurement": "Algometer force on surgical site when the dog moved the leg (mean ± SD)", "setting": "[2]; Day 2, L (treated) hindlimb, Group 2 Low, 6.25 μg", "value": "5.0 ± 2.7", "unit": "Newton"}, {"measurement": "Algometer force on surgical site when the dog moved the leg (mean ± SD)", "setting": "[2]; Day 2, L (treated) hindlimb, Group 3 Local, 50 μg", "value": "8.5 ± 1.5", "unit": "Newton"}, {"measurement": "Algometer force on surgical site when the dog moved the leg (mean ± SD)", "setting": "[2]; Day 2, R (non-treated) hindlimb, Group 1 High, 25 μg", "value": "4.9 ± 2.1", "unit": "Newton"}, {"measurement": "Algometer force on surgical site when the dog moved the leg (mean ± SD)", "setting": "[2]; Day 2, R (non-treated) hindlimb, Group 2 Low, 6.25 μg", "value": "3.7 ± 2.0", "unit": "Newton"}, {"measurement": "Algometer force on surgical site when the dog moved the leg (mean ± SD)", "setting": "[2]; Day 2, R (non-treated) hindlimb, Group 3 Local, 50 μg", "value": "6.5 ± 3.5", "unit": "Newton"}, {"measurement": "Algometer force on surgical site when the dog moved the leg (mean ± SD)", "setting": "[2]; Day 3, L (treated) hindlimb, Group 1 High, 25 μg", "value": "5.3 ± 1.5", "unit": "Newton"}, {"measurement": "Algometer force on surgical site when the dog moved the leg (mean ± SD)", "setting": "[2]; Day 3, L (treated) hindlimb, Group 2 Low, 6.25 μg", "value": "5.9 ± 4.2", "unit": "Newton"}, {"measurement": "Algometer force on surgical site when the dog moved the leg (mean ± SD)", "setting": "[2]; Day 3, L (treated) hindlimb, Group 3 Local, 50 μg", "value": "7.7 ± 2.0", "unit": "Newton"}, {"measurement": "Algometer force on surgical site when the dog moved the leg (mean ± SD)", "setting": "[2]; Day 3, R (non-treated) hindlimb, Group 1 High, 25 μg", "value": "7.1 ± 1.8", "unit": "Newton"}, {"measurement": "Algometer force on surgical site when the dog moved the leg (mean ± SD)", "setting": "[2]; Day 3, R (non-treated) hindlimb, Group 2 Low, 6.25 μg", "value": "6.3 ± 1.5", "unit": "Newton"}, {"measurement": "Algometer force on surgical site when the dog moved the leg (mean ± SD)", "setting": "[2]; Day 3, R (non-treated) hindlimb, Group 3 Local, 50 μg", "value": "6.5 ± 3.4", "unit": "Newton"}, {"measurement": "Algometer force on surgical site when the dog moved the leg (mean ± SD)", "setting": "[2]; Day 14, L (treated) hindlimb, Group 1 High, 25 μg", "value": "5.3 ± 3.9", "unit": "Newton"}, {"measurement": "Algometer force on surgical site when the dog moved the leg (mean ± SD)", "setting": "[2]; Day 14, L (treated) hindlimb, Group 2 Low, 6.25 μg", "value": "2.9 ± 1.2", "unit": "Newton"}, {"measurement": "Algometer force on surgical site when the dog moved the leg (mean ± SD)", "setting": "[2]; Day 14, L (treated) hindlimb, Group 3 Local, 50 μg", "value": "6.6 ± 4.2", "unit": "Newton"}, {"measurement": "Algometer force on surgical site when the dog moved the leg (mean ± SD)", "setting": "[2]; Day 14, R (non-treated) hindlimb, Group 1 High, 25 μg", "value": "5.0 ± 2.3", "unit": "Newton"}, {"measurement": "Algometer force on surgical site when the dog moved the leg (mean ± SD)", "setting": "[2]; Day 14, R (non-treated) hindlimb, Group 2 Low, 6.25 μg", "value": "5.2 ± 1.5", "unit": "Newton"}, {"measurement": "Algometer force on surgical site when the dog moved the leg (mean ± SD)", "setting": "[2]; Day 14, R (non-treated) hindlimb, Group 3 Local, 50 μg", "value": "4.7 ± 3.5", "unit": "Newton"}, {"measurement": "Algometer force on surgical site when the dog moved the leg (mean ± SD)", "setting": "[2]; Day 28, L (treated) hindlimb, Group 1 High, 25 μg", "value": "5.8 ± 2.4", "unit": "Newton"}, {"measurement": "Algometer force on surgical site when the dog moved the leg (mean ± SD)", "setting": "[2]; Day 28, L (treated) hindlimb, Group 2 Low, 6.25 μg", "value": "4.5 ± 3.9", "unit": "Newton"}, {"measurement": "Algometer force on surgical site when the dog moved the leg (mean ± SD)", "setting": "[2]; Day 28, L (treated) hindlimb, Group 3 Local, 50 μg", "value": "4.4 ± 2.6", "unit": "Newton"}, {"measurement": "Algometer force on surgical site when the dog moved the leg (mean ± SD)", "setting": "[2]; Day 28, R (non-treated) hindlimb, Group 1 High, 25 μg", "value": "4.6 ± 3.5", "unit": "Newton"}, {"measurement": "Algometer force on surgical site when the dog moved the leg (mean ± SD)", "setting": "[2]; Day 28, R (non-treated) hindlimb, Group 2 Low, 6.25 μg", "value": "2.7 ± 2.1", "unit": "Newton"}, {"measurement": "Algometer force on surgical site when the dog moved the leg (mean ± SD)", "setting": "[2]; Day 28, R (non-treated) hindlimb, Group 3 Local, 50 μg", "value": "5.0 ± 1.9", "unit": "Newton"}, {"measurement": "Algometer force on surgical site when the dog moved the leg (mean ± SD)", "setting": "[2]; Day 56, L (treated) hindlimb, Group 1 High, 25 μg", "value": "7.0 ± 3.1", "unit": "Newton"}, {"measurement": "Algometer force on surgical site when the dog moved the leg (mean ± SD)", "setting": "[2]; Day 56, L (treated) hindlimb, Group 2 Low, 6.25 μg", "value": "4.9 ± 1.8", "unit": "Newton"}, {"measurement": "Algometer force on surgical site when the dog moved the leg (mean ± SD)", "setting": "[2]; Day 56, L (treated) hindlimb, Group 3 Local, 50 μg", "value": "10.9 ± 8.7", "unit": "Newton"}, {"measurement": "Algometer force on surgical site when the dog moved the leg (mean ± SD)", "setting": "[2]; Day 56, R (non-treated) hindlimb, Group 1 High, 25 μg", "value": "6.3 ± 1.2", "unit": "Newton"}, {"measurement": "Algometer force on surgical site when the dog moved the leg (mean ± SD)", "setting": "[2]; Day 56, R (non-treated) hindlimb, Group 2 Low, 6.25 μg", "value": "5.7 ± 1.7", "unit": "Newton"}, {"measurement": "Algometer force on surgical site when the dog moved the leg (mean ± SD)", "setting": "[2]; Day 56, R (non-treated) hindlimb, Group 3 Local, 50 μg", "value": "9.0 ± 4.6", "unit": "Newton"}]}]}
